The values that follow are results of earlier work, collected in patent US9681659B2, “Agrochemical formulation comprising encapsulated pesticide” (BASF SE, priority 2011, dated 2017).

In brackets after ≈: the same amount, converted by molar mass.

`CC1=CC(=O)CC(C)(C)C1` [isoporone]: under “all data at 20° C., examples for aprotic, polar solvent B”, the “solubility values (in water)” value was 15 g/L (≈ 109 mM). Turning to `COc1cc(C)c(C(=O)c2c(OC)ccc(Br)c2C)c(OC)c1OC` [metrafenon], the solubilities in water (in water, examples for pesticide A) was 0.5 mg/L.
